In brackets after ≈: the same amount, converted by molar mass.
Experiments:
[1] = tested on: E. coli 901C; assay: Broth microdilution MIC in CAMHB; type: cell-based; details: Escherichia coli; E. coli 901C (hyper-permeable); MHB; read-out: Minimum Inhibitory Concentration, E. coli 901C
Summary of the method: (§1)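 Standard CLSI-style microdilution in cation-adjusted Mueller Hinton broth, 2-fold dilution series, incubated 16-20 h at 37° C; endpoint was visual absence of growth.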

[2] = tested on: P. aeruginosa (ΔmexAB-oprM); assay: Broth microdilution MIC in CAMHB; type: cell-based; details: Pseudomonas aeruginosa, read-out: Minimum Inhibitory Concentration, P. aeruginosa ΔmexAB-OprM
Summary of the method: as §1

[3] = tested on: A. baumannii ATCC 19606; assay: Broth microdilution MIC in CAMHB; type: cell-based; details: Acinetobacter baumannii, ATCC19606; MHB; read-out: Minimum Inhibitory Concentration, A. baumannii ATCC 19606
Summary of the method: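 Colonies from cation-adjusted Mueller Hinton agar are grown in broth (3-5 h, 37° C), adjusted by OD600, and added at 2-8×10^5 CFU/mL to 2-fold compound dilutions. After 16-20 h at 37° C, the lowest concentration without growth is taken as MIC.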

[4] = tested on: E. coli ATCC 25922; assay: Broth microdilution MIC in CAMHB; type: cell-based; details: Escherichia coli, ATCC25922; E. coli ATCC 25922; MHB; read-out: Minimum Inhibitory Concentration, E. coli 25922
Summary of the method: as §1

[5] = tested on: K. pneumoniae 848844 producing SHV-11 and KPC-2; assay: Broth microdilution MIC in CAMHB; type: cell-based; details: Klebsiella pneumoniae, read-out: Minimum Inhibitory Concentration, K. pneumoniae 848844
Summary of the method: as §1

[6] = tested on: K. pneumoniae UMM producing SHV-5 and KPC-2; assay: Broth microdilution MIC in CAMHB; type: cell-based; details: Klebsiella pneumoniae, read-out: Minimum Inhibitory Concentration, K. pneumoniae UMM
Summary of the method: as §1

[7] = tested on: E. coli AG100; assay: Broth microdilution MIC in CAMHB; type: cell-based; details: Escherichia coli; E. coli AG100 (wild-type parent); MHB; read-out: Minimum Inhibitory Concentration, E. coli AG100
Summary of the method: as §1

[8] = tested on: K. pneumoniae SI-117 producing VIM-1; assay: Broth microdilution MIC in CAMHB; type: cell-based; details: Klebsiella pneumoniae, read-out: Minimum Inhibitory Concentration, K. pneumoniae SI-117
Summary of the method: as §1

[9] = tested on: E. coli AG100A; assay: Broth microdilution MIC in CAMHB; type: cell-based; details: Escherichia coli, read-out: Minimum Inhibitory Concentration, E. coli AG100A
Summary of the method: as §1

[10] = tested on: E. coli D22; assay: Broth microdilution MIC in CAMHB; type: cell-based; details: Escherichia coli; E. coli D22 (hyper-permeable); MHB; read-out: Minimum Inhibitory Concentration, E. coli D22
Summary of the method: as §1

[11] = tested on: P. aeruginosa ATCC 35151; assay: Broth microdilution MIC in CAMHB; type: cell-based; details: Pseudomonas aeruginosa, ATCC35151; MHB; hyper-permeable strain; read-out: Minimum Inhibitory Concentration, P. aeruginosa ATCC 35151
Summary of the method: as §1

[12] = molecular target: T1, E. coli K12 PBP3 (Escherichia coli, UniProt P0AD68); assay: biochemical; type: binding
T1 construct: made in house
T1 sequence (P0AD68 1-577): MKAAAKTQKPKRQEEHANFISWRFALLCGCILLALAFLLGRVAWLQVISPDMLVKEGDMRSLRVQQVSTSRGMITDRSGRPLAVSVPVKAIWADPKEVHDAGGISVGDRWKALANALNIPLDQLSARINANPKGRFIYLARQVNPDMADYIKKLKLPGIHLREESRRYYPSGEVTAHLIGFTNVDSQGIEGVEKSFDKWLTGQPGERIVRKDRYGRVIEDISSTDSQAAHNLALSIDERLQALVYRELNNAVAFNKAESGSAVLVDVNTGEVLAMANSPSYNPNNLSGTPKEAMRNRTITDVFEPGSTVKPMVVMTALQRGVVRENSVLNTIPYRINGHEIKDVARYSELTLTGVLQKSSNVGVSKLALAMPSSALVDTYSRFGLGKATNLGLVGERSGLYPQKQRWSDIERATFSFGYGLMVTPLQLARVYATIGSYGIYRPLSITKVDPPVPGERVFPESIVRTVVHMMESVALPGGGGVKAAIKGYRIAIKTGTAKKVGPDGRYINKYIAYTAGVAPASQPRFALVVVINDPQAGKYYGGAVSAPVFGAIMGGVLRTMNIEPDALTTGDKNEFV
Summary of the method: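 A. baumannii PBP2 (2.5 μM) and PBP3 (0.2 μM) were run in 25 mM Tris pH 8.0 buffer with Tween 20; E. coli PBP3 (1.5 μM) and N. gonorrhoeae PBP2 ([…]) in 50 mM Hepes pH 8.0 buffer.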

[13] = tested on: P. aeruginosa PAO1; assay: Broth microdilution MIC in CAMHB; type: cell-based; details: Pseudomonas aeruginosa, MHB, read-out: Minimum Inhibitory Concentration, P. aeruginosa PAO1
Procedure: To determine the ability of test compounds to inhibit the growth of bacterial strains, classic cell based broth microdilution minimum inhibitory concentration (MIC) assays were employed. MIC assays are performed according to CLSI methods except where otherwise noted (CLSI, 2018 and CLSI, 2019). The reference type strain E. coli ATCC 25922; the wild-type parent strain E. coli AG100; the hyper-permeable E. coli 901C and E. coli D22; and the E. coli AG100A strain lacking the acrAB efflux pump encoding genes were used to determine the ability of the PBP inhibitors to penetrate the outer membrane of gram-negative bacteria and inhibit bacterial growth. […] The P. aeruginosa ATCC 27853 and A. baumannii ATCC 19606, along with the hyper-permeable P. aeruginosa ATCC 35151 and an engineered efflux pump-compromised strain of P. aeruginosa (ΔmexAB-oprM) were used to determine the ability of PBP inhibitors to penetrate the outer membrane of P. aeruginosa and A. baumannii and assess antibacterial activity against these important gram-negative organisms.
Briefly, cryo-preserved bacterial cultures of challenge strains are streaked for isolation on appropriate agar medium, in this case cation-adjusted Mueller Hinton agar. Following incubation to allow growth of the colonies, plates are sealed with parafilm and stored refrigerated for up to two weeks. For preparation of assay inoculum and to ensure low variability, at least 5 colonies are picked from the agar plates with an inoculating loop and aseptically transferred to a culture tube containing 3 mL of cation-adjusted Mueller Hinton broth (CAMHB). The broth culture is grown for 3-5 hours at 37° C. with shaking at 200 rpm. Meanwhile, 2-fold serial dilutions of test compounds are conducted in a 96-well plate with a final volume of 75 μL per well at 2-fold the final desired concentration. After the dilution plates are set up the growing cultures are then diluted in a cuvette containing CAMHB and the optical density is measured at 600 nm. The inoculum is diluted such that 75 μL of this culture in CAMHB results in a starting bacterial concentration of 2-8×10^5 CFU/mL when added to the dilution plates. The plates are incubated for 16-20 hours for Enterobacteriaceae and Pseudomonas and 20-24 hours for Acinetobacter at 37° C. The MIC values are read visually as the lowest concentration well with no bacterial growth.

[14] = molecular target: T2, P. aeruginosa PBP3 (Pseudomonas aeruginosa, UniProt G3XD46); assay: Bocillin-FL fluorescence polarization competition binding assay, P. aeruginosa PBP3; details: fluorescence polarization competition binding assay using Bocillin-FL
T2 construct: made in house
T2 sequence (G3XD46 whole entry): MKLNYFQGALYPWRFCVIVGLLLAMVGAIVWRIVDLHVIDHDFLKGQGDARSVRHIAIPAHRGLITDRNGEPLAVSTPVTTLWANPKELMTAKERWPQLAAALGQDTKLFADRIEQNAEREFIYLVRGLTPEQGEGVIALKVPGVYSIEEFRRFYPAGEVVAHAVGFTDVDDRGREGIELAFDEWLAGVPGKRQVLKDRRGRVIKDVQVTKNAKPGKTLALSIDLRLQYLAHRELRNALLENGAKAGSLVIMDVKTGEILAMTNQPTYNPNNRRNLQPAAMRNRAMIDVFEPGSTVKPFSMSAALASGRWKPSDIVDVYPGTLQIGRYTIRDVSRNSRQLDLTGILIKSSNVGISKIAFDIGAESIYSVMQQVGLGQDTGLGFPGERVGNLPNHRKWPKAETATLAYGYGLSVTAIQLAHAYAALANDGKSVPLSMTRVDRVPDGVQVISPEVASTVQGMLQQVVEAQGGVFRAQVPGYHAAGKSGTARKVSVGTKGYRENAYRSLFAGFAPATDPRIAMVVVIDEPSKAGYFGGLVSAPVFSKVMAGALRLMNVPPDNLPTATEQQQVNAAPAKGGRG
Summary of the method: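 Inhibitor competition with Bocillin-FL for P. aeruginosa PBP3 was followed by fluorescence polarization on a Cytation3 (BioTek) reader, using g-factor 0.96, 490 nm excitation and 520 nm emission. The enzyme was at 0.75 μM and the probe at 0.1 μM in Hepes/NaCl/glycerol buffer, 80 μl per well. FP was recorded immediately after probe addition for up to 60 minutes. Potency was expressed as EC50, the concentration that reduces bound probe by 50%.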

Row | Structure (SMILES) | MIC [1] [µg/mL] | MIC [2] [µg/mL] | MIC [3] [µg/mL] | MIC [4] [µg/mL] | MIC [5] [µg/mL] | MIC [6] [µg/mL] | MIC [7] [µg/mL] | MIC [8] [µg/mL] | MIC [9] [µg/mL] | MIC [10] [µg/mL] | MIC [11] [µg/mL] | EC50 [12] [µM] | MIC [13] [µg/mL] | P. aeruginosa PBP3 Potency [14]
1 | CCN1CCN(C(=O)NC(C(=O)N[C@H]2Cc3ccc(SCCN)c(C(=O)O)c3OB2O)c2csc(N)n2)C(=O)C1=O (stereo partly drawn) [Example 67, (3R)-7-((2-aminoethyl)thio)-3-(2-(2-aminothiazol-4-yl)-2-(4-ethyl-2,3-dioxopiperazine-1-carboxamido)acetamido)-2-hydroxy-3,4-dihydro-2H-benzo[e][1,2]oxaborinine-8-carboxylic acid] | 0.5 to 1 (≈ 0.826 to 1.65 µM) | 32 to 64 (≈ 52.9 to 106 µM) | > 128 | 32 to 64 (≈ 52.9 to 106 µM) | > 128 | 32 to 64 (≈ 52.9 to 106 µM) | > 128 | 32 to 64 (≈ 52.9 to 106 µM) | 32 to 64 (≈ 52.9 to 106 µM) | 8 to 16 (≈ 13.2 to 26.4 µM) | 0.5 to 1 (≈ 0.826 to 1.65 µM) | 30 to 500 | > 128 | 
2 | CCN1CCN(C(=O)NC(C(=O)N[C@H]2Cc3ccc(SCCN4CCCC4)c(C(=O)O)c3OB2O)c2csc(N)n2)C(=O)C1=O (stereo partly drawn) [Example 64, (3R)-3-(2-(2-aminothiazol-4-yl)-2-(4-ethyl-2,3-dioxopiperazine-1-carboxamido)acetamido)-2-hydroxy-7-((2-(pyrrolidin-1-yl)ethyl)thio)-3,4-dihydro-2H-benzo[e][1,2]oxaborinine-8-carboxylic acid] | 32 to 64 (≈ 48.5 to 97 µM) | > 128 | > 128 | > 128 | > 128 | > 128 | > 128 | > 128 | > 128 | > 128 | 8 to 16 (≈ 12.1 to 24.3 µM) | > 500 | > 128 | B (B represents a potency between 30 μM and 500 μM inclusive)
3 | CCN1CCN(C(=O)NC(C(=O)N[C@H]2Cc3ccc(C=NOCCN)c(C(=O)O)c3OB2O)c2csc(N)n2)C(=O)C1=O (stereo partly drawn) [Example 62, (3R)-7-(((2-aminoethoxy)imino)methyl)-3-(2-(2-aminothiazol-4-yl)-2-(4-ethyl-2,3-dioxopiperazine-1-carboxamido)acetamido)-2-hydroxy-3,4-dihydro-2H-benzo[e][1,2]oxaborinine-8-carboxylic acid] | 32 to 64 (≈ 51.9 to 104 µM) | > 128 | > 128 | > 128 | > 128 | > 128 | > 128 | > 128 | 32 to 64 (≈ 51.9 to 104 µM) | 32 to 64 (≈ 51.9 to 104 µM) | 8 to 16 (≈ 13 to 26 µM) | > 500 | > 128 | B (B represents a potency between 30 μM and 500 μM inclusive)
4 | CCN1CCN(C(=O)NC(C(=O)N[C@H]2Cc3ccc(O)c(C(=O)O)c3OB2O)c2ccccc2)C(=O)C1=O (stereo partly drawn) [Example 61, (3R)-3-(2-(4-ethyl-2,3-dioxopiperazine-1-carboxamido)-2-phenylacetamido)-2,7-dihydroxy-3,4-dihydro-2H-benzo[e][1,2]oxaborinine-8-carboxylic acid] | 0.5 to 1 (≈ 0.954 to 1.91 µM) | > 128 | > 128 | 32 to 64 (≈ 61 to 122 µM) | > 128 | > 128 | 32 to 64 (≈ 61 to 122 µM) | > 128 | 32 to 64 (≈ 61 to 122 µM) | 8 to 16 (≈ 15.3 to 30.5 µM) | 8 to 16 (≈ 15.3 to 30.5 µM) |  | > 128 | B (B represents a potency between 30 μM and 500 μM inclusive)
5 | CCN1CCN(C(=O)NC(C(=O)N[C@H]2Cc3ccc(SC)c(C(=O)O)c3OB2O)c2csc(N)n2)C(=O)C1=O (stereo partly drawn) [Example 56, (3R)-3-(2-(2-aminothiazol-4-yl)-2-(4-ethyl-2,3-dioxopiperazine-1-carboxamido)acetamido)-2-hydroxy-7-(methylthio)-3,4-dihydro-2H-benzo[e][1,2]oxaborinine-8-carboxylic acid] | 0.5 to 1 (≈ 0.867 to 1.73 µM) | 32 to 64 (≈ 55.5 to 111 µM) | > 128 | 32 to 64 (≈ 55.5 to 111 µM) | 32 to 64 (≈ 55.5 to 111 µM) | 8 to 16 (≈ 13.9 to 27.8 µM) | 32 to 64 (≈ 55.5 to 111 µM) | 32 to 64 (≈ 55.5 to 111 µM) | 8 to 16 (≈ 13.9 to 27.8 µM) | 8 to 16 (≈ 13.9 to 27.8 µM) | 0.5 to 1 (≈ 0.867 to 1.73 µM) | 30 to 500 | > 128 | 
6 | CCN1CCN(C(=O)NC(C(=O)N[C@H]2Cc3ccc(SCC[N+]4(C)CCCC4)c(C(=O)O)c3OB2O)c2csc(N)n2)C(=O)C1=O.O=C([O-])C(F)(F)F (stereo partly drawn) [Example 65, 1-(2-(((3R)-3-(2-(2-aminothiazol-4-yl)-2-(4-ethyl-2,3-dioxopiperazine-1-carboxamido)acetamido)-8-carboxy-2-hydroxy-3,4-dihydro-2H-benzo[e][1,2]oxaborinin-7-yl)thio)ethyl)-1-methylpyrrolidin-1-ium 2,2,2-trifluoroacetate] | 32 to 64 | > 128 | > 128 | > 128 | > 128 | > 128 | > 128 | > 128 | 32 to 64 | > 128 | 8 to 16 | > 500 | > 128 | 
7 | CCN1CCN(C(=O)NC(C(=O)N[C@H]2Cc3ccc(SCCNCCN)c(C(=O)O)c3OB2O)c2csc(N)n2)C(=O)C1=O (stereo partly drawn) [Example 66, (3R)-7-((2-((2-aminoethyl)amino)ethyl)thio)-3-(2-(2-aminothiazol-4-yl)-2-(4-ethyl-2,3-dioxopiperazine-1-carboxamido)acetamido)-2-hydroxy-3,4-dihydro-2H-benzo[e][1,2]oxaborinine-8-carboxylic acid] | 32 to 64 (≈ 49.3 to 98.7 µM) | > 128 | > 128 | > 128 | > 128 | > 128 | > 128 | > 128 | 32 to 64 (≈ 49.3 to 98.7 µM) | 32 to 64 (≈ 49.3 to 98.7 µM) | 8 to 16 (≈ 12.3 to 24.7 µM) | > 500 | > 128 | 

Reference: US20230114728A1 (Venatorx Pharmaceuticals, Inc., priority 2019, published 2023)
